Assay results taken from US9932300B2, “N,N′-diarylurea compounds and N,N′-diarylthiourea compounds as inhibitors of translation initiation” (President and Fellows of Harvard College, priority 2009, dated 2018).
Several values for one entry are separate records, joined by “and”; a condition that tells them apart may be missing. Equal values may be shown once.

System: eIF2-GTP-Met-tRNAi ternary complex
Assay: Ternary complex assay (dual luciferase, firefly/renilla ratio) in stable KLN-tTA/pBISA-DL(ATF-4) cells; HTS and hit confirmation
Assay type: cell-based, mouse
Parameters: Activity 10 uM / Activity 2.5 uM / Activity 5 uM: unit not given here
Details: confirmed hits of the screen (Table 5); for Activity 5 uM: compound at 5 uM; for Activity 10 uM: compound at 10 uM; for Activity 2.5 uM: compound at 2.5 uM

| SMILES | Activity 5 uM | Activity 10 uM | Activity 2.5 uM |
| --- | --- | --- | --- |
| C/C(=N\NC(=S)N1CCSCC1)c1ccccn1 [Compound 332543] | 4.083 | 5.182 |  |
| O=C1C(Cl)=C(Nc2nccs2)C(=O)c2ccccc21 [Compound 337757] | 6.205 | 5.978 |  |
| N#C/C(=C/C=C/c1ccccc1)c1ccccc1 [Compound 338119] | 3.435 | 5.6885 |  |
| Cc1ccc(/C=C/c2ccc([N+](=O)[O-])cc2)cc1 [Compound 338462] | 4.54 | 6.4125 |  |
| COc1ccc2c(Cc3ccccc3)c3[n+](cc2c1OC)CCc1cc2c(cc1-3)OCO2.[Br-] [Compound 338631] |  | 3.39 | 1.12 |
| O=C(CC(c1cccnc1)C(C(=O)c1ccc(Cl)cc1)C(CC(=O)c1ccc(Cl)cc1)c1cccnc1)c1ccc(Cl)cc1 (stereo not shown) [Compound 339119] |  | 4.42 | 1.01 |
| C1=C(c2ccccc2)OC(c2ccccc2)=C(c2ccccc2)[P+]1(c1ccccc1)c1ccccc1.[Br-] [Compound 339567] |  | 11.94 | 1.94 |
| Cc1ccc(Sc2ccc3ccccc3n2)cc1 [Compound 340215] |  | 3.11 | 2.4 |
| CN1/C(=C/C=C/C=C/C2=[N+](C)c3ccccc3C2(C)C)C(C)(C)c2ccccc21.[I-] [Compound 340302] |  | 4.54 | 3.29 |
| COc1ccc(N=C(C)C2C(=O)c3ccccc3C2=O)cc1 [Compound 343385] | 11.2 | 8.3265 |  |
| CC(=Nc1ccc(F)cc1)C1C(=O)c2ccccc2C1=O [Compound 343386] | 4.235 | 5.4775 |  |
| COc1cccc(N=C(C)C2C(=O)c3ccccc3C2=O)c1 [Compound 343387] |  | 3.33 | 2.32 |
| O=C(NCC(=O)N1CCCC1)N/N=C/c1ccccc1O [Compound 343979] | 2.571 | 3.1255 |  |
| CC(C)[N+](=C1O[B-](c2ccccc2)(c2ccccc2)O[B-]1(c1ccccc1)[C+]1CCCCC1)C(C)C (stereo not shown) [Compound 344506] |  | 5.08 | 0.69 |
| Cc1nc2cc3c(cc2n2cccc12)oc1ccccc13 [Compound 346212] | 5.376 | 5.7595 |  |
| Nc1cc2c(cc1-n1cccc1)oc1ccccc12 [Compound 347204] | 4.246 | 6.6455 |  |
| Clc1nc2cc3c(cc2n2cccc12)oc1ccccc13 [Compound 347816] | 3.143 | 3.5245 |  |
| Br.CN1CCC2(C)CC(Br)(Cc3ccccc32)C1Cl (stereo not shown) [Compound 349125] |  | 13.75 | 0.47 |
| [Cl][Hg][Cl] [Compound 353255] |  |  | 3.3 |
| C/C(=N\NC(=S)Nc1nccs1)c1ccccn1 [Compound 354087] |  | 10.14 | 2.65 |
| O=C(Nc1nc2ccsc2s1)c1ccccc1 [Compound 354215] |  | 4.14 | 3.08 |
| c1ccc(-c2cnn3c(-c4ccccc4)cnnc23)cc1 [Compound 355167] |  | 4.17 | 3.09 |
| [Cl][Sn]([CH2][Sn]([Cl])([c]1ccccc1)[c]1ccccc1)([c]1ccccc1)[c]1ccccc1 [Compound 356110] | 2.4 | 3.9 |  |
| [Br][Sn]([Br])([CH2][Sn]([Br])([c]1ccccc1)[c]1ccccc1)[c]1ccccc1 [Compound 356111] | 4.4 | 3.2 |  |
| COc1ccc2nc3cc(Cl)ccc3c(NCCC3CCCN4CCCCC34)c2c1 (stereo not shown) [Compound 359827] |  | 6.27 | 0.61 |
| CSc1ncnc2c(C3OC(COC(C)=O)C(OC(C)=O)C3OC(C)=O)[nH]nc12 (stereo not shown) [Compound 360648] |  | 3.85 | 1.88 |
| CC(C)(C)c1cc(C(O)(C(F)(F)F)C(F)(F)F)c(Cl)c(C(O)(C(F)(F)F)C(F)(F)F)c1 [Compound 361407] |  | 3.7 | 0.62 |

| SMILES | Activity 5 uM | Activity 10 uM | Activity 2.5 uM |
| --- | --- | --- | --- |
| c1cc[c]([Ge]([O][Ge]([c]2ccccc2)[c]2ccccc2)[c]2ccccc2)cc1.c1cc[c]([Ge]([O][Ge]([c]2ccccc2)[c]2ccccc2)[c]2ccccc2)cc1 [Compound 361597] |  | 17.56 | 0.32 |
| O=C1c2c(-c3ccccc3)ccc(-c3ccccc3)c2C2(O)OC1(O)c1c(-c3ccccc3)ccc(-c3ccccc3)c1C2=O [Compound 361889] |  | 12.01 | 0.88 |
| COc1ccc(N=c2nc3n4c(c(Br)cc(Br)c4n2)NC(C(Br)(Br)Br)=N3)cc1 [Compound 366233] |  | 30.55 | 17.26 |
| CC(/C=C/c1cccc(C)c1)=N\NC(N)=O [Compound 366583] | 2.409 | 3.134 |  |
| COc1ccc2c(n1)Sc1nc3ccccc3nc1N2 [Compound 367416] | 6.047 | 7.3545 |  |
| Br.C/C(=C\c1ccccc1)C(=O)C(CN(C)C)CN(C)C [Compound 367620] |  | 16.04 | 0.49 |
| Cc1ccc2nc(-c3ccccc3)c(N=O)n2c1 [Compound 369061] | 5.137 | 6.3 |  |
| O=C(Nc1nc2ccc(Cl)cc2[nH]1)c1ccccc1O [Compound 369110] |  | 6.46 | 1.84 |
| CC(=Nc1ccc(Cl)cc1N)c1c(O)cc(C)oc1=O [Compound 369331] | 2.533 | 2.7605 |  |
| CN(C(=[Se])[Se]C(=[Se])N(C)C1CCCCC1)C1CCCCC1 [Compound 369741] |  | 6.34 | 0.96 |
| c1csc(-c2[nH]nc3c2CCc2ccccc2-3)c1 [Compound 370463] |  | 5.98 | 4.76 |
| Cn1c2ccccc2c2nnc(N/N=C/c3ccccn3)nc21 [Compound 370589] |  | 39.54 | 11.87 |
| Cc1ccc2c(O)c3c(cc2c1O)C(=O)c1ccccc1C3=O [Compound 374924] |  | 6.35 | 2.1 |
| C/C(=N\NC(=S)N1CCN(C2CCCCCC2)CC1)c1ccccn1 [Compound 376265] |  | 7.26 | 2.72 |
| O=C(O)Cc1ccc(O)c(O)c1.[Pt].c1ccc([PH+](c2ccccc2)c2ccccc2)cc1.c1ccc([PH+](c2ccccc2)c2ccccc2)cc1 [Compound 377376] |  | 5.14 | 0.96 |
| CNCC(O)c1ccc(O)c(O)c1.[Pt].c1ccc([PH+](c2ccccc2)c2ccccc2)cc1.c1ccc([PH+](c2ccccc2)c2ccccc2)cc1 [Compound 377377] |  | 34.93 | 0.77 |
| CC(C)NCC(O)c1ccc(O)c(O)c1.[Pt].c1ccc([PH+](c2ccccc2)c2ccccc2)cc1.c1ccc([PH+](c2ccccc2)c2ccccc2)cc1 [Compound 377378] |  | 21.49 | 0.87 |
| Nc1ccccc1-c1nnc(-c2ccccc2)o1 [Compound 377831] |  | 3.79 | 2.19 |
| COc1cc2c(cc1C[N+](C)(C)CSc1ccccc1)-c1ccccc1CC2.[Br-] [Compound 378135] |  | 3.15 | 1.75 |
| Nc1ccccc1Nc1c([N+](=O)[O-])cc(C(F)(F)F)cc1[N+](=O)[O-] [Compound 379578] |  | 27.15 | 0.61 |
| CC1(C)CN=C(NN=C(C=Cc2ccc(C(F)(F)F)cc2)C=Cc2ccc(C(F)(F)F)cc2)NC1 [Compound 379665] |  | 35.03 | 1.08 |
| COC(=O)C1=C(C(=O)OC)C2(C)OC1c1ccccc12 (stereo not shown) [Compound 380207] |  |  | 0.47 and 0.3615 |
| c1ccc(-c2noc(-c3ccccc3)n2)cc1 [Compound 400077] |  | 3.14 | 2.04 |
| CN(C)c1ccc(N=C2C=CC(=O)C=C2)cc1 [Compound 400538] |  | 6.8 | 0.57 |
| Cc1cc(N=Nc2ccccc2C)c(N)cc1N [Compound 400939] |  | 3.56 | 2.36 |
| CC1=CC(=Nc2ccc(N(C)C)cc2)C=CC1=O [Compound 401162] |  | 7.084 | 0.3784 |
| c1ccc2c(O[Si](Oc3cccc4ccccc34)(Oc3cccc4ccccc34)Oc3cccc4ccccc34)cccc2c1 [Compound 401234] |  | 24.65 | 1 |
